Assays:
[1] = Hydrolysis in Blood (stability in human plasma); format: in vitro ADME
[2] = biological target: T1, Human Glucocorticoid Receptor (Homo sapiens, UniProt P04150); test: functional in vitro glucocorticoid assay, sPAP reporter under MMTV LTR in transfected Hela cells; format: cell-based; details: sPAP transcription in transfected Hela cells, 72 hours incubation
T1 construct: endogenous in cells; host or cells: HeLa cells (stably transfected with the sPAP reporter under the MMTV LTR)
T1 sequence (P04150 1-777): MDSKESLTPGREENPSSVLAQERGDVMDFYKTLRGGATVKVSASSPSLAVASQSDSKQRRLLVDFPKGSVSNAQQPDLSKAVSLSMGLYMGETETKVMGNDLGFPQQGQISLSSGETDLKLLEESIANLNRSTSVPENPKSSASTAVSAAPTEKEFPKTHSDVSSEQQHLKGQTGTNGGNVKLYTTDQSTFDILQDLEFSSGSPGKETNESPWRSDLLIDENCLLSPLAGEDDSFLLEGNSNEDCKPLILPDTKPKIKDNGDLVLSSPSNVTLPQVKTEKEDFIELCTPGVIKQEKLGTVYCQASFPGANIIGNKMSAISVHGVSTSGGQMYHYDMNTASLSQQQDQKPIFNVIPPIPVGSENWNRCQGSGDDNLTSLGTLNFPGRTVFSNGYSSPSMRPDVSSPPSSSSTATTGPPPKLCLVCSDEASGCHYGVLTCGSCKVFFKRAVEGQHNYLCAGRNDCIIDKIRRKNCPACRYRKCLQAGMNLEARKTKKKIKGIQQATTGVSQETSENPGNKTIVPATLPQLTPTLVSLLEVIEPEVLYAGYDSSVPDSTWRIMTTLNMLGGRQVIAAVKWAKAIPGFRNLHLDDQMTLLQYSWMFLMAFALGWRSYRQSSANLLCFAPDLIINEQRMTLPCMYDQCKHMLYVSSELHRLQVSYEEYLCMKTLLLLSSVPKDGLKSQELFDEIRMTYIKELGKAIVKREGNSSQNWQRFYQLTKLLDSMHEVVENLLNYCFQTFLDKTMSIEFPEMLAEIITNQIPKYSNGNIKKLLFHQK
Excerpt: The functional assay used was a modification of the method described by T. S Berger et al, of J. of Steroid Biochem. Molec. Biol. 1992, 41 (3-8), 733-738, "Interaction of Glucocorticoid analogues with the Human Glucocorticoid Receptor".
Thus, Hela cells were stably transfected with a detectable reporter gene (secreted placental alkaline phosphatase, sPAP) under the control of a glucocorticoid response promoter (the LTR of the mouse mammary tumour virus, MMTV).
Various concentrations of standard (dexamethasone) or compounds of the invention were incubated with transfected Hela cells for 72 hours. At the end of the incubation, substrate ([…]) for sPAP was added and the product measured by a spectrophotometric method. Increased absorbance reflected increased sPAP transcription and concentration-response lines were constructed such that EC50 -values could be estimated.

[3] = tested on: rat ear oedema; test: Anti-inflammatory activity: inhibition of rat ear oedema (croton oil); format: in vivo; details: topical to ear with 5% croton oil in acetone, male rats, 6 hours
Protocol: (i) Anti-inflammatory Activity--Inhibition of rat ear oedema
The test compounds are dissolved in acetone and 40 ul containing 5% croton oil is applied to the inner surface of each of the ears of 60-80 g male rats. Animals are killed 6 hours later and the ears are removed. Standard size (0.5 cm diameter) discs are punched out and the discs weighed. Mean weight of the ear discs is calculated and from this percentage inhibition of ear inflammation in relation to croton oil alone treated ears are calculated.

CC1(C)O[C@@H]2C[C@H]3[C@@H]4C[C@H](F)C5=CC(=O)C=C[C@]5(C)[C@@]4(F)[C@@H](O)C[C@]3(C)[C@]2(C(=O)N[C@H]2CCOC2=O)O1 [Example 15, 6α,9α-Difluoro-11β-hydroxy-16α,17α-isopropylidenedioxy-3-oxo-androsta-1,4-diene-17β-carboxylic acid N-(2-oxo-tetrahydro-furan-3S-yl) amide]
half-life [1]: < 3 h | EC50 [2]: < 400 nM

CC1(C)O[C@@H]2C[C@H]3[C@@H]4C[C@H](F)C5=CC(=O)C=C[C@]5(C)[C@@]4(F)[C@@H](O)C[C@]3(C)[C@]2(C(=O)NC2CCOC2=O)O1 (stereo partly drawn) [Example 16, 6α,9α-Difluoro-11β-hydroxy-16α,17α-isopropylidenedioxy-3-oxo-androsta-1,4-diene-17β-carboxylic acid N-(2-oxo-tetrahydro-furan-3-yl) amide]
half-life [1]: < 3 h | EC50 [2]: < 400 nM

CC1(C)O[C@@H]2C[C@H]3[C@@H]4C[C@H](F)C5=CC(=O)C=C[C@]5(C)[C@@]4(F)[C@@H](O)C[C@]3(C)[C@]2(C(=O)N[C@@H]2COC(=O)C2)O1 [Example 23, 6α,9α-Difluoro-11β-hydroxy-16α,17α-isopropylidenedioxy-3-oxo-androsta-1,4-diene-17β-carboxylic acid N-(2-oxo-tetrahydro-furan-4S-yl) amide]
half-life [1]: < 3 h | EC50 [2]: < 400 nM

CCCC(=O)O[C@]1(C(=O)SC2CCOC2=O)[C@H](C)C[C@H]2[C@@H]3C[C@H](F)C4=CC(=O)C=C[C@]4(C)[C@@]3(F)[C@@H](O)C[C@@]21C (stereo partly drawn) [Example 5, 17α-Butyryloxy-6α,9α-difluoro-11β-hydroxy-16α-methyl-3-oxo-androsta-1,4-diene-17β-carbothioic acid S-(2-oxo-tetrahydro-furan-3-yl) ester]
EC50 [2]: < 400 nM

CCC(=O)O[C@]1(C(=O)SC2CCOC2=O)[C@H](C)C[C@H]2[C@@H]3C[C@H](F)C4=CC(=O)CC[C@]4(C)[C@@]3(F)[C@@H](O)C[C@@]21C (stereo partly drawn) [Example 4]
EC50 [2]: < 400 nM

CCC(=O)O[C@]1(C(=O)SC2COC(=O)C2)[C@H](C)C[C@H]2[C@@H]3C[C@H](F)C4=CC(=O)C=C[C@]4(C)[C@@]3(F)[C@@H](O)C[C@@]21C (stereo partly drawn) [Example 9, 6α,9α-Difluoro-11α-hydroxy-16α-methyl-3-oxo-17α-propionyloxy-androsta-1,4-diene-17β-carbothioic acid S-(2-oxo-tetrahydro-furan-4-yl) ester]
EC50 [2]: < 400 nM

CCC(=O)O[C@]1(C(=O)SC2CCOC2=O)[C@@H](C)C[C@H]2[C@@H]3CCC4=CC(=O)C=C[C@]4(C)[C@@]3(F)[C@@H](O)C[C@@]21C (single isomer, unassigned) [Example 7, 9α-Fluoro-11β-hydroxy-16β-methyl-3-oxo-17α-propionyloxy-androsta-1,4-diene-17β-carbothioic acid S-(2-oxo-tetrahydro-furan-3-yl) ester]
EC50 [2]: < 400 nM

CCC[C@@H]1O[C@@H]2C[C@H]3[C@@H]4C[C@H](F)C5=CC(=O)CC[C@]5(C)[C@@]4(F)[C@@H](O)C[C@]3(C)[C@]2(C(=O)SC2CCOC2=O)O1 (single isomer, unassigned) [Example 19 Isomer B, 16α,17α-(R-Butylidenedioxy)-6α,9α-difluoro-11β-hydroxy-3-oxo-androst-4-ene-17β-carbothioic acid S-(2-oxo-tetrahydro-furan-3-yl) ester]
% Inhibition (ear inflammation) ([3]; dose 100 μg): 43%

CCC(=O)O[C@]1(C(=O)SC2CCC(=O)O2)[C@H](C)C[C@H]2[C@@H]3C[C@H](F)C4=CC(=O)C=C[C@]4(C)[C@@]3(F)[C@@H](O)C[C@@]21C (stereo partly drawn) [Example 8, 6α,9α-Difluoro-11β-hydroxy-16α-methyl-3-oxo-17α-propionyloxy-androsta-1,4-diene-11β-carbothioic acid S-(5-oxo-tetrahydro-furan-2-yl) ester]
EC50 [2]: < 400 nM

CCC[C@@H]1O[C@@H]2C[C@H]3[C@@H]4C[C@H](F)C5=CC(=O)CC[C@]5(C)[C@@]4(F)[C@@H](O)C[C@]3(C)[C@]2(C(=O)SC2CCOC2=O)O1 (single isomer, unassigned) [Example 19, 16α,17α-(R-Butylidenedioxy)-6α,9α-difluoro-11β-hydroxy-3-oxo-androst-4-ene-17β-carbothioic acid S-(2-oxo-tetrahydro-furan-3-yl) ester]
EC50 [2]: < 400 nM

CC1(C)O[C@@H]2C[C@H]3[C@@H]4C[C@H](F)C5=CC(=O)C=C[C@]5(C)[C@@]4(F)[C@@H](O)C[C@]3(C)[C@]2(C(=O)SC2CCOC2=O)O1 (single isomer, unassigned) [Example 12, 6α,9α-Difluoro-11β-hydroxy-16α,17α-isopropylidenedioxy-3-oxoandrosta-1,4-diene-17β-carbothioic acid S-(2-oxo-tetrahydro-furan-3-yl) ester]
EC50 [2]: < 400 nM

CCC[C@@H]1O[C@@H]2C[C@H]3[C@@H]4C[C@H](F)C5=CC(=O)CC[C@]5(C)[C@@]4(F)[C@@H](O)C[C@]3(C)[C@]2(C(=O)SC2CCOC2=O)O1 (single isomer, unassigned) [Example 19 Isomer A, 16α,17α-(R-Butylidenedioxy)-6α,9α-difluoro-11β-hydroxy-3-oxo-androst-4-ene-17β-carbothioic acid S-(2-oxo-tetrahydro-furan-3-yl) ester]
% Inhibition (ear inflammation) ([3]; dose 100 μg): 54%

CC1(C)O[C@@H]2C[C@H]3[C@@H]4C[C@H](F)C5=CC(=O)C=C[C@]5(C)[C@@]4(F)[C@@H](O)C[C@]3(C)[C@]2(C(=O)N[C@@H]2CCOC2=O)O1 (single isomer, unassigned) [Example 16 Isomer B, 6α,9α-Difluoro-11β-hydroxy-16α,17α-isopropylidenedioxy-3-oxo-androsta-1,4-diene-17β-carboxylic acid N-(2-oxo-tetrahydro-furan-3-yl) amide]
% Inhibition (ear inflammation) ([3]; dose 10 μg): 42%

CCC(=O)O[C@]1(C(=O)SC2CCOC2=O)[C@H](C)C[C@H]2[C@@H]3C[C@H](F)C4=CC(=O)C=C[C@]4(C)[C@@]3(F)[C@@H](O)C[C@@]21C (stereo partly drawn) [Example 1, 6α,9α-Difluoro-11β-hydroxy-16α-methyl-3-oxo-17α-propionyloxy-androsta-1,4-diene-17β-carbothioic acid S-(2-oxo-tetrahydro-furan-3-yl) ester]
EC50 [2]: < 400 nM

CCC[C@@H]1O[C@@H]2C[C@H]3[C@@H]4C[C@H](F)C5=CC(=O)CC[C@]5(C)[C@@]4(F)[C@@H](O)C[C@]3(C)[C@]2(C(=O)NC2CCOC2=O)O1 (single isomer, unassigned) [Example 22, 16α,17α-(R-Butylidenedioxy)-6α,9α-difluoro-11β-hydroxy-3-oxo-androst-4-ene-17β-carboxylic acid N-(2-oxo-tetrahydro-furan-3-yl) amide]
half-life [1]: < 3 h | EC50 [2]: < 400 nM

CC1(C)O[C@@H]2C[C@H]3[C@@H]4C[C@H](F)C5=CC(=O)C=C[C@]5(C)[C@@]4(F)[C@@H](O)C[C@]3(C)[C@]2(C(=O)N[C@H]2COC(=O)C2)O1 [Example 24, 6α,9α-Difluoro-11β-hydroxy-16α,17α-isopropylidenedioxy-3-oxo-androsta-1,4-diene-17β-carboxylic acid N-(2-oxo-tetrahydro-furan-4R-yl) amide]
EC50 [2]: < 400 nM

CC(=O)O[C@]1(C(=O)SC2CCOC2=O)[C@H](C)C[C@H]2[C@@H]3C[C@H](F)C4=CC(=O)C=C[C@]4(C)[C@@]3(F)[C@@H](O)C[C@@]21C (stereo partly drawn) [Example 6, 17α-Acetyloxy-α,9α-difluoro-11β-hydroxy-16α-methyl-3-oxo-androsta-1,4-diene-17β-carbothioic acid S-(2-oxo-tetrahydro-furan-3-yl) ester]
EC50 [2]: < 400 nM

From US6197761A, “17β-2-oxo-tetrahydrofuranyl)-carbothioic acid ester, -carboxylic acid ester and -carboxylic acid amide androstane derivatives” (Glaxo Wellcome Inc., priority 1995, dated 2001)
